Source: US9993492B2, “Lysophospholipids and lysophospholipid analogues against honeybee brood diseases” (University of Graz, priority 2013, dated 2018)
Where two headings read alike, the source gives them in different places.

Columns and labels:
Paenibacillus larvae = assay: Antimicrobial assay in BHI liquid medium, vegetative forms of Paenibacillus larvae (MIC); assay type: cell-based; conditions: for MIC: Paenibacillus larvae
Procedure: For the evaluation of certain fatty acids and phospholipids, overnight cultures of vegetative forms of Pl were used (for results see Table 1.1).
(§1) As test organisms, several different strains of Paenibacillus larvae were used.
(§2) Overnight cultures of the vegetative forms of bacteria were prepared in BHI (brain heart infusion) liquid medium.
From these overnight cultures, an inoculum of 50 μl is added to 1.0 ml of BHI liquid medium to perform the bacterial test in liquid medium. The compound 1-O-oleoyl-sn-glycero-3-phosphocholine (oleoyl-LPC) together with a positive control was then added at concentrations of 2, 5 and 10 ppm and the test tubes were incubated for 24 h at 34.5° C. Then, the extinction of the solution was measured photometrically.

Melissococcus plutonius = assay: Antimicrobial assay in liquid Basal Medium against Melissococcus plutonius (MIC); assay type: cell-based; conditions: Melissococcus plutonius
Procedure: M. pl. was cultured in liquid Basal Medium (BM) for 4 days at 35° C. and from here serial dilutions were carried out to estimate CFU/ml by plating onto BM agar plates. 5 days later CFU were count and concentration was estimated to be 3.46*10^6 CFU/ml. For the antimicrobial assay, an inoculum of 50 μl of the liquid culture is added to 1 mL of BM liquid medium. A set of different substances were tested in different concentrations (2, 5 and 10 ppm) in order to find out their inhibitory effect against M. pl growth. For substances tested, concentration applied and results see table 1.2. Three replicates per substance were included in the experiment. 5 days after the experiment was started OE (optical extinction) was measured at 600 nm.

[1] = test system: spores of Paenibacillus larvae; assay: Spore assay in BHI liquid medium with plating for CFU; assay type: cell-based; conditions: lowest investigated dose (5 ppm); 114.6±28.4 spores per vial; 4 and 6 days
Procedure: A stock solution containing spores at a known concentration is used to inoculate c. 100 spores/mL medium. This assay is carried out in 20 mL cultivation tubes containing 1.0 mL of BHI (brain heart infusion) liquid medium. To this medium containing c. […] spores, test compounds are added at different concentrations (e.g., 2, 5 and 10 ppm), together with positive control (penicillin G at 5 ppm) and blank control.
To verify inoculation with c. 100 spores/mL, tubes containing BHI+spores are plated out immediately on agar plates to assess the number of colony forming units (CFU) after 6 days of incubation at 34.5° C.
For the control of viability of the spores, the turbidity (due to germination of spores and formation of vegetative forms) of tubes containing BHI+spores is evaluated on day 4.
For the test probes, bacterial growth is evaluated on day 4 and 6. For those tubes which are negative for bacterial growth, the whole medium (c. 1 mL) is plated onto agar plates and evaluated for CFUs after 2 and 6 days of incubation. CFUs visible after two days result from vegetative forms, while CFUs appearing after […] stem from spores.
The results of these tests allow identifying whether the tested compounds have an effect on spore germination in liquid medium and the viability of the spores as assessed by their germination on agar plates. […]

[2] = test system: Paenibacillus larvae (Eric II test strain); assay: Inhibition zone test on Columbia agar; assay type: cell-based; conditions: Paenibacillus larvae, 24 h, 34.5° C.
Procedure: as §1, §2
For the inhibition zone test, 500 μL of overnight culture were added to 15-20 mL of Columbia agar, mixed and poured onto a petri dish. After the agar solidified, either punched wholes are filled with different amounts of test compounds or test compounds are pipetted on paper discs (5 mm Ø). The plate is then incubated for 24 h (34.5° C.) and zones of inhibition are measured and given in mm. Lactic acid and penicillin G were used as positive controls.
E II—Eric II (test strain of Pl)

honeybee larvae = assay: LPC tolerance in non-infected artificially reared larvae, mortality until day 12; assay type: in vivo, Apis mellifera; conditions: LPC 10 μg/larva on day 1, 2 and 3, no spores, replicates separated by /, Nlarvae 70/48/47/48/40

SMILES: CCCCCCCC/C=C\CCCCCCCC(=O)OC[C@@H](O)COP(=O)([O-])OCC[N+](C)(C)C [1-O-oleoyl-sn-glycero-3-phosphocholine]
- MIC (Paenibacillus larvae; 24 h, vegetative forms of Pl, liquid medium, read-out: MIC (ppm)): 2 to 5 µg/mL
- MIC (Paenibacillus larvae; in vitro, read-out: in vitro Pl inhibitory activity, MIC): 2.5 µg/mL
- MIC (Paenibacillus larvae; vegetative forms of Pl, liquid medium, read-out: MIC): > 3.8 µM
- inhibitory / antibacterial activity against Pl (in words) (Paenibacillus larvae; in vitro): good in vitro Pl inhibitory activity
- MIC (Melissococcus plutonius; 120 h, M. pl. in BM liquid medium, OE at 600 nm after 5 days, read-out: MIC): > 3.8 µM
- MIC (Melissococcus plutonius; 120 h, M. pl. in BM liquid medium, OE at 600 nm after 5 days, read-out: MIC (ppm)): 2 µg/mL
- MIC (Melissococcus plutonius; read-out: in vitro M. pl. inhibitory activity, MIC): 2.5 µg/mL
- killing of vegetative forms upon germination of spores [1]: all vegetative forms are killed
- zone of inhibition at 5 µg/disc ([2]; amount 5 μg): 3.5 mm
- zone of inhibition at 10 µg/disc ([2]; amount 10 μg): 5 mm
- Ndead larvae total (honeybee larvae; days 1-12): 9/6/5/3/3
- Ndead larvae day 1 (honeybee larvae): 0/0/0/0/0
- Ndead larvae day 2 (honeybee larvae): 0/2/0/0/0
- Ndead larvae day 3 (honeybee larvae): 0/0/3/0/0
- Ndead larvae day 4 (honeybee larvae): 1/0/1/0/1
- Ndead larvae day 5 (honeybee larvae): 0/0/0/0/0
- Ndead larvae day 6 (honeybee larvae): 1/1/0/0/1
- Ndead larvae day 7 (honeybee larvae): 0/0/1/0/0
- Ndead larvae day 8 (honeybee larvae): 2/0/0/0/0
- Ndead larvae day 9 (honeybee larvae): 1/2/0/3/0
- Ndead larvae day 10 (honeybee larvae): 2/0/0/0/0
- Ndead larvae day 11 (honeybee larvae): 0/1/0/0/1
- Ndead larvae day 12 (honeybee larvae): 2/0/0/0/0
